# pKi: −log10 of the molar value.
# Key:
# [1] = molecular target: Gamma-aminobutyric acid receptor subunit alpha-6/beta-3/gamma-2 (Homo sapiens, UniProt Q16445+P18507+P28472); assay: Displacement of [3H]flunitrazepam from human recombinant GABAA alpha-6-beta-3-gamma-2 receptor expressed in HEK cells by liquid scintillation counting
# [2] = molecular target: T1, GABA-A receptor; alpha-2/beta-3/gamma-2 (Homo sapiens, UniProt P47869+P18507+P28472); assay: Displacement of [3H]flunitrazepam from human recombinant GABAA alpha-2-beta-3-gamma-2 receptor expressed in HEK cells by liquid scintillation counting
# T1 sequence (P47869 whole entry): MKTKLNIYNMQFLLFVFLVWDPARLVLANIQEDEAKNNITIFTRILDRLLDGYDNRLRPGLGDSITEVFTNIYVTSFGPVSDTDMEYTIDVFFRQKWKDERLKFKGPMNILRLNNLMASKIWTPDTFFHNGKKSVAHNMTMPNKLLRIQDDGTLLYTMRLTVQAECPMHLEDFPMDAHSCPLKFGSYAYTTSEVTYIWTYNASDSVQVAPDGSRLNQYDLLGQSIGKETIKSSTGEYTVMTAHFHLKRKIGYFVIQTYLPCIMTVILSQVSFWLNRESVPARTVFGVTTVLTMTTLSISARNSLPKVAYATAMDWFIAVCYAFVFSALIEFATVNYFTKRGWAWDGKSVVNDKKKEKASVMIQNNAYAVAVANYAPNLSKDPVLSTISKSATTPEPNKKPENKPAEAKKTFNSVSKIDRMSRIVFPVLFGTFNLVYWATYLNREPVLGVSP
# T1 sequence (P18507 whole entry): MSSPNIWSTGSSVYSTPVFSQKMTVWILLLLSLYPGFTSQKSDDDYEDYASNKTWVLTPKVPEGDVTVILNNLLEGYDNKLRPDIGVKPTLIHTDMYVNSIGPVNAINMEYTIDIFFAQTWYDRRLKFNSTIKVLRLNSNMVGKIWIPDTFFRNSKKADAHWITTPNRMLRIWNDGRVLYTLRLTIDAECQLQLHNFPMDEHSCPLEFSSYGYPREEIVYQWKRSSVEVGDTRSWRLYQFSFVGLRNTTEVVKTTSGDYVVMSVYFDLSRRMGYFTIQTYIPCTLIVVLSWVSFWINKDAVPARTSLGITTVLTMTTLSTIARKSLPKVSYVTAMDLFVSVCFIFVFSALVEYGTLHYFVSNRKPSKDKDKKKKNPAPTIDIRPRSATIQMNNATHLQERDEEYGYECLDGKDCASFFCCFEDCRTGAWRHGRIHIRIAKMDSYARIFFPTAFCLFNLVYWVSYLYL
# T1 sequence (P28472 whole entry): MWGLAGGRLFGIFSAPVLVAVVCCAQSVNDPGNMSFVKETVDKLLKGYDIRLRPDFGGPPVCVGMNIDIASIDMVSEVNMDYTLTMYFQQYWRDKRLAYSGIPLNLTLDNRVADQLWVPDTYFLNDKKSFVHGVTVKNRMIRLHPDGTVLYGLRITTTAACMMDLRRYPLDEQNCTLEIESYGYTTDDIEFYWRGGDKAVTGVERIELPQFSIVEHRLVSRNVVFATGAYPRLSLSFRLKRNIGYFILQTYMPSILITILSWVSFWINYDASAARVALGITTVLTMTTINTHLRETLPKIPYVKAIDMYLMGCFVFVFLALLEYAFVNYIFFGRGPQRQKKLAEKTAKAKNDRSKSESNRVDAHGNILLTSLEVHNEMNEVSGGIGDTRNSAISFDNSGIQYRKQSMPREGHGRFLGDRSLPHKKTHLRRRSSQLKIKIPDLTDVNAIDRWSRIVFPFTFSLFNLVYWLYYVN
# [3] = molecular target: T2, GABA-A receptor; alpha-5/beta-3/gamma-2 (Homo sapiens, UniProt P31644+P18507+P28472); assay: Displacement of [3H]flunitrazepam from human recombinant GABAA alpha-5-beta-3-gamma-2 receptor expressed in HEK cells by liquid scintillation counting
# T2 sequence (P31644 whole entry): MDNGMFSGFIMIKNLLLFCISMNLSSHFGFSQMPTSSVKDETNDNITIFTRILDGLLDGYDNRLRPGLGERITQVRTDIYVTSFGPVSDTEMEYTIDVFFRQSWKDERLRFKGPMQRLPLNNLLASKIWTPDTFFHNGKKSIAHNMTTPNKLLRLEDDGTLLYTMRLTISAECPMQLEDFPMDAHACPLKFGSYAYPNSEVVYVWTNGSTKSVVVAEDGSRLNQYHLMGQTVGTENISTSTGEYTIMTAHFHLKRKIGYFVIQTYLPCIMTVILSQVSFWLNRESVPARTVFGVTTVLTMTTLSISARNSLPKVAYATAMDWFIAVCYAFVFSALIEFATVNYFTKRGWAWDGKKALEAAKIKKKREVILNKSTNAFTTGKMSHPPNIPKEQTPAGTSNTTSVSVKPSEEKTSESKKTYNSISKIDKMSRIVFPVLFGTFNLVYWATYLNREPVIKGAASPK
# T2 sequence (P18507 whole entry): T1 sequence (P18507 whole entry)
# T2 sequence (P28472 whole entry): T1 sequence (P28472 whole entry)
# [4] = molecular target: T3, Gamma-aminobutyric acid receptor subunit alpha-3/beta-3/gamma-2 (Homo sapiens, UniProt P34903+P18507+P28472); assay: Displacement of [3H]flunitrazepam from human recombinant GABAA alpha-3-beta-3-gamma-2 receptor expressed in HEK cells by liquid scintillation counting
# T3 sequence (P34903 whole entry): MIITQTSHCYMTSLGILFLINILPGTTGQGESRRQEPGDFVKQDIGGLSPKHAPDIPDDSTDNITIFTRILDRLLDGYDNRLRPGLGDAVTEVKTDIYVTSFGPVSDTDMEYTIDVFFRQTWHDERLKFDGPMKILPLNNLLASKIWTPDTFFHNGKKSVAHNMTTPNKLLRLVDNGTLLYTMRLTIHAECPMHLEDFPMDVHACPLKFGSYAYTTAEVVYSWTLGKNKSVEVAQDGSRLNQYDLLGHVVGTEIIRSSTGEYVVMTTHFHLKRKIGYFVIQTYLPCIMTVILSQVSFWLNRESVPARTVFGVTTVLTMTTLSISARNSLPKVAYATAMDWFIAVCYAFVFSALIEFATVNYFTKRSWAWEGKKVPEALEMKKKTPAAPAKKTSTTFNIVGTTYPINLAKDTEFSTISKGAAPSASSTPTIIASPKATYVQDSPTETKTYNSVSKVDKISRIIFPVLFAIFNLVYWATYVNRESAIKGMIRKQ
# T3 sequence (P18507 whole entry): T1 sequence (P18507 whole entry)
# T3 sequence (P28472 whole entry): T1 sequence (P28472 whole entry)
# [5] = molecular target: GABA A receptor alpha-4/beta-3/gamma-2 (Homo sapiens, UniProt P48169+P18507+P28472); assay: Displacement of [3H]flunitrazepam from human recombinant GABAA alpha-4-beta-3-gamma-2 receptor expressed in HEK cells by liquid scintillation counting
# Sequence of GABA A receptor alpha-4/beta-3/gamma-2 (P48169 whole entry, one chain of several): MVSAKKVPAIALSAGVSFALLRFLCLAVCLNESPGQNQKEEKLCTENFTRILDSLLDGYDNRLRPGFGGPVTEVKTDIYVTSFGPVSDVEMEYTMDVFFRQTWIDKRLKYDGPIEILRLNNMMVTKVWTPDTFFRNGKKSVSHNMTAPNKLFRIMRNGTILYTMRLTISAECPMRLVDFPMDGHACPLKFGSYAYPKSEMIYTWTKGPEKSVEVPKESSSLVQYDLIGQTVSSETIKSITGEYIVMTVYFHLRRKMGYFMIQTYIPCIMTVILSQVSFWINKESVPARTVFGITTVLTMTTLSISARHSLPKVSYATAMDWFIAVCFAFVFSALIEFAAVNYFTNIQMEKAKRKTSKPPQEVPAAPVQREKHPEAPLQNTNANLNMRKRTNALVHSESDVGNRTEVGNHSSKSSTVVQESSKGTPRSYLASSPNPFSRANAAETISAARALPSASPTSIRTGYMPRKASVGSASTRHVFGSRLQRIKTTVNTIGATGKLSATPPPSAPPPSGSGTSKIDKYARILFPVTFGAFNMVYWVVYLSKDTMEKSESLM
# Sequence of Gamma-aminobutyric acid receptor subunit alpha-6/beta-3/gamma-2 (Q16445 whole entry, one chain of several): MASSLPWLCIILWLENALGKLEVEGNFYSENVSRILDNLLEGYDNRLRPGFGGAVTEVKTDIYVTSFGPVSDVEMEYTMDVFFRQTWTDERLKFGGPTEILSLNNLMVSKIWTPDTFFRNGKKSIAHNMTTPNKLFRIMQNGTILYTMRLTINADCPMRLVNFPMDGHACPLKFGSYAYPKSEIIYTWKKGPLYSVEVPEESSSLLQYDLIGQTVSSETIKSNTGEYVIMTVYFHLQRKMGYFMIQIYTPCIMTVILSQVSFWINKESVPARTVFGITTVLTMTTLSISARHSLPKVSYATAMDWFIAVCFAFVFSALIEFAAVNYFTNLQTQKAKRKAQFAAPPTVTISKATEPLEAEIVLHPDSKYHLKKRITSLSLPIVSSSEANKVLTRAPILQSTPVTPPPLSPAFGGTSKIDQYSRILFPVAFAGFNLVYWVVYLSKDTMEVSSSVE
SMILES,pKi [1],pKi [2],pKi [3],pKi [4],pKi [5]
CC(C)COc1cc2c3ccccc3nc-2c[nH]1,5.00,–,–,–,–
c1ccc(COc2cc3c4ccccc4nc-3c[nH]2)cc1,5.00,5.52,5.00,5.52,–
CC(C)(C)OC(=O)c1cc2c(cn1)[nH]c1ccccc12,–,–,–,–,6.00
"O=C(OC(C(F)(F)F)C(F)(F)F)c1cc2c(cn1)[nH]c1ccc(I)cc12 [1,1,1,3,3,3-hexafluoropropan-2-yl 6-iodo-9H-pyrido[3,4-b]indole-3-carboxylate]",5.52,–,–,–,5.52
"O=C(OC(C(F)(F)F)C(F)(F)F)c1cc2c(cn1)[nH]c1ccccc12 [1,1,1,3,3,3-hexafluoropropan-2-yl 9H-pyrido[3,4-b]indole-3-carboxylate]",5.70,–,–,–,6.00
"CC(C)(C)OC(=O)c1cc2c(cn1)[nH]c1ccc(C#CC#Cc3ccc4[nH]c5cnc(C(=O)OC(C)(C)C)cc5c4c3)cc12 [1,4-Bis(9H-beta-carboline-3-carboxylic acid tert-butyl ester)buta-1,3-diyne]",5.30,–,5.30,–,5.30
"CC(OC(=O)c1cc2c(cn1)[nH]c1ccccc12)c1ccccc1 (stereo not given) [1-phenylethyl 9H-pyrido[3,4-b]indole-3-carboxylate]",5.52,6.00,6.00,6.00,6.00
"O=C(OCC(Cl)(Cl)Cl)c1cc2c(cn1)[nH]c1ccccc12 [2,2,2-trichloroethyl 9H-pyrido[3,4-b]indole-3-carboxylate]",5.70,–,–,–,6.00
"O=C(OCC(F)(F)F)c1cc2c(cn1)[nH]c1ccc(-c3ccco3)cc12 [2,2,2-trifluoroethyl 6-(furan-2-yl)-9H-pyrido[3,4-b]indole-3-carboxylate]",5.70,–,–,–,5.52
"O=C(OCC(F)(F)F)c1cc2c(cn1)[nH]c1ccc(-c3cccs3)cc12 [2,2,2-trifluoroethyl 6-(thiophen-2-yl)-9H-pyrido[3,4-b]indole-3-carboxylate]",5.70,–,–,–,5.70
"C#Cc1ccc2[nH]c3cnc(C(=O)OCC(F)(F)F)cc3c2c1 [2,2,2-trifluoroethyl 6-ethynyl-9H-pyrido[3,4-b]indole-3-carboxylate]",5.70,–,–,–,5.70
"O=C(OCC(F)(F)F)c1cc2c(cn1)[nH]c1ccc(I)cc12 [2,2,2-trifluoroethyl 6-iodo-9H-pyrido[3,4-b]indole-3-carboxylate]",5.52,–,–,–,5.70
"O=C(OCC(F)(F)F)c1cc2c(cn1)[nH]c1ccc(-c3ccccc3)cc12 [2,2,2-trifluoroethyl 6-phenyl-9H-pyrido[3,4-b]indole-3-carboxylate]",5.70,–,–,–,5.70
"O=C(Oc1cc(F)c(F)cc1F)c1cc2c(cn1)[nH]c1ccccc12 [2,4,5-trifluorophenyl 9H-pyrido[3,4-b]indole-3-carboxylate]",5.52,–,–,–,5.52
"CC/C=C/C=C/Oc1cc2c(cn1)[nH]c1ccccc12 [3-(hexa-1,3-dienyloxy)-9H-pyrido[3,4-b]indole]",5.00,–,5.00,–,–
"CCOc1cc2c(cn1)[nH]c1ccccc12 [3-ethoxy-9H-pyrido[3,4-b]indole]",6.00,–,–,–,–
"CCCOc1cc2c(cn1)[nH]c1ccccc12 [3-propoxy-9H-pyrido[3,4-b]indole]",–,–,–,–,6.00
CC(C)(C)OC(=O)c1cc2c(cn1)[nH]c1ccc(C#C[Si](C)(C)C)cc12 [6-Trimethylsilanylethynyl-9H-beta-carboline-3-carboxylic acid t-butyl ester],6.00,–,–,–,–
"C#Cc1ccc2c(c1)c1cc(C(=O)OC(C)(C)C)ncc1n2C(=O)OC(C)(C)C [di-tert-butyl 6-ethynyl-9H-pyrido[3,4-b]indole-3,9-dicarboxylate]",5.30,–,5.30,–,–
"CCOC(=O)c1cc2c(cn1)[nH]c1ccc(C#C[Si](C)(C)C)cc12 [ethyl 6-((trimethylsilyl)ethynyl)-9H-pyrido[3,4-b]indole-3-carboxylate]",5.70,–,–,–,5.70
"CCOC(=O)c1cc2c(cn1)[nH]c1ccc(I)cc12 [ethyl 6-iodo-9H-pyrido[3,4-b]indole-3-carboxylate]",6.00,–,–,–,6.00
"CC(C)(C)OC(=O)c1cc2c(cn1)[nH]c1ccc(-c3ccco3)cc12 [tert-butyl 6-(furan-2-yl)-9H-pyrido[3,4-b]indole-3-carboxylate]",5.30,–,–,–,–
"CC(C)(C)OC(=O)c1cc2c(cn1)[nH]c1ccc(-c3cccs3)cc12 [tert-butyl 6-(thiophen-2-yl)-9H-pyrido[3,4-b]indole-3-carboxylate]",5.30,–,–,–,–
"CC(C)(C)OC(=O)c1cc2c(cn1)[nH]c1ccc(F)cc12 [tert-butyl 6-fluoro-9H-pyrido[3,4-b]indole-3-carboxylate]",6.00,–,–,–,6.00
"CC(C)(C)OC(=O)c1cc2c(cn1)[nH]c1ccc(-c3ccccc3)cc12 [tert-butyl 6-phenyl-9H-pyrido[3,4-b]indole-3-carboxylate]",5.30,–,–,–,–
"CC(C)(C)OC(=O)c1cc2c(cn1)[nH]c1ccc(C(C)(C)C)cc12 [tert-butyl 6-tert-butyl-9H-pyrido[3,4-b]indole-3-carboxylate]",6.00,–,–,–,6.00
